Tests used:
chickweed [1] = test: Test D preemergence; format: in vivo, Stellaria media; settings: for Plant response rating, Chickweed: Preemergence, scale 0 to 100
Excerpt: (§1) Seeds of plant species selected from bluegrass (annual bluegrass, Poa annua), blackgrass (Alopecurus myosuroides), canarygrass (littleseed canarygrass, Phalaris minor), chickweed (common chickweed, Stellaria media), galium (catchweed bedstraw, Galium aparine), bromegrass, downy (downy bromegrass, Bromus tectorum), field poppy (Papaver rhoeas), field violet (Viola arvensis), foxtail, green (green foxtail, Setaria viridis), deadnettle (henbit deadnettle, Lamium amplexicaule), ryegrass, Italian (Italian ryegrass, Lolium multiflorum), kochia (Kochia scoparia), lambsquarters (Chenopodium album), oilseed rape (Brassica napus), pigweed (redroot pigweed, Amaranthus retroflexus), chamomile (scentless chamomile, Matricaria inodora), speedwell (bird's-eye speedwell, Veronica persica), barley, spring (spring barley, Hordeum vulgare), wheat, spring (spring wheat, Triticum aestivum), buckwheat, wild (wild buckwheat, Polygonum convolvulus), mustard, wild (wild mustard, Sinapis arvensis), oat, wild (wild oat, Avena fatua), radish, wild (wild radish, Raphanus raphanistrum), windgrass (Apera spica-venti), Russian thistle (Salsola kali), barley, winter (winter barley, Hordeum vulgare), and wheat, winter (winter wheat, Triticum aestivum) were planted into a silt loam soil and treated preemergence with test chemicals formulated in a non-phytotoxic solvent mixture which included a surfactant.
(§2) At the same time, these species were planted in pots containing Redi-Earth® planting medium (Scotts Company, 14111 Scottslawn Road, Marysville, Ohio 43041) comprising spaghnum peat moss, vermiculite, wetting agent and starter nutrients and treated with postemergence applications of the test chemicals formulated in the same manner. Plants ranged in height from 2 to 18 cm (1- to 4-leaf stage). Treated plants and controls were maintained in a controlled growth environment for 14 to 21 days after which time all species were compared to controls and visually evaluated. Plant response ratings, summarized in Table D, are based on a scale of 0 to 100 where 0 is no effect and 100 is complete control. A dash (-) response means no test result.

radish, wild = test: Test D preemergence; format: in vivo, Raphanus raphanistrum; settings: for Plant response rating, Radish, Wild: Preemergence, scale 0 to 100
In short: (§3)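 Preemergence: seeds sown in silt loam and sprayed with compounds in a non-phytotoxic solvent with surfactant; postemergence: plants at 2 to 18 cm (1- to 4-leaf stage) in peat-based medium treated likewise. After 14 to 21 days in controlled growth conditions, injury rated visually versus controls on 0 (no effect) to 100 (complete control) scale.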

bluegrass = test: Test D postemergence; format: in vivo, Poa annua; settings: scale 0 to 100
In short: as §3

field violet = test: Test D preemergence; format: in vivo, Viola arvensis; settings: for Plant response rating, Field Violet: Preemergence, scale 0 to 100
In short: as §3

oilseed rape = test: Test D postemergence; format: in vivo, Brassica napus; settings: scale 0 to 100
In short: as §3

ryegrass, Italian = test: Test D preemergence; format: in vivo, Lolium multiflorum; settings: for Plant response rating, Ryegrass, Italian: Preemergence, scale 0 to 100
In short: as §3

buckwheat, wild [2] = test: Test D postemergence; format: in vivo, Polygonum convolvulus; settings: scale 0 to 100
In short: as §3

mustard, wild = test: Test D preemergence; format: in vivo, Sinapis arvensis; settings: for Plant response rating, Mustard, Wild: Preemergence, scale 0 to 100
In short: as §3

chickweed [3] = test: Test D postemergence; format: in vivo, Stellaria media; settings: scale 0 to 100
In short: as §3

wheat, winter = test: Test D postemergence; format: in vivo, Triticum aestivum; settings: scale 0 to 100
In short: as §3

wheat, spring = test: Test D postemergence; format: in vivo, Triticum aestivum; settings: scale 0 to 100
In short: as §3

field poppy = test: Test D postemergence; format: in vivo, Papaver rhoeas; settings: scale 0 to 100
In short: as §3

foxtail, green = test: Test D preemergence; format: in vivo, Setaria viridis; settings: for Plant response rating, Foxtail, Green: Preemergence, scale 0 to 100
In short: as §3

windgrass = test: Test D preemergence; format: in vivo, Apera spica-venti; settings: for Plant response rating, Windgrass: Preemergence, scale 0 to 100
In short: as §3

pigweed = test: Test D preemergence; format: in vivo, Amaranthus retroflexus; settings: for Plant response rating, Pigweed: Preemergence, scale 0 to 100
In short: as §3

buckwheat, wild [4] = test: Test D preemergence; format: in vivo, Polygonum convolvulus; settings: for Plant response rating, Buckwheat, Wild: Preemergence, scale 0 to 100
In short: as §3

barley, spring = test: Test D preemergence; format: in vivo, Hordeum vulgare; settings: for Plant response rating, Barley, Spring: Preemergence, scale 0 to 100
In short: as §3

barley, winter = test: Test D preemergence; format: in vivo, Hordeum vulgare; settings: for Plant response rating, Barley, Winter: Preemergence, scale 0 to 100
In short: as §3

kochia = test: Test D preemergence; format: in vivo, Kochia scoparia; settings: for Plant response rating, Kochia: Preemergence, scale 0 to 100
In short: as §3

galium = test: Test D preemergence; format: in vivo, Galium aparine; settings: Preemergence, scale 0 to 100
Excerpt: as §1, §2

[5] = 16 g ai/ha, taken as preemergence

O=C(NC1CC1)c1cc(CCF)n(Cc2ccnc(C(F)(F)F)c2)n1 [Compound 176]
45: Plant response rating, Field Poppy (field poppy; Postemergence, 16 g ai/ha) | Plant response rating, Kochia (kochia; 62 g ai/ha)
10: Plant response rating (scale 0 to 100), Chickweed (chickweed [1]; [5]) | Plant response rating (scale 0 to 100), Mustard, Wild (mustard, wild; [5]) | Plant response rating, Windgrass (windgrass; 62 g ai/ha) | Plant response rating (scale 0 to 100), Pigweed (pigweed; [5])
40: Oilseed Rape plant response rating (oilseed rape; Postemergence, 31 g ai/ha) | Oilseed Rape plant response rating (oilseed rape; postemergence, 62 g ai/ha) | Plant response rating, Foxtail, Green (foxtail, green; 125 g ai/ha) | Plant response rating, Windgrass (windgrass; 125 g ai/ha) | Plant response rating, Pigweed (pigweed; 62 g ai/ha)
85: Plant response rating, Chickweed (chickweed [1]; 62 g ai/ha) | Plant response rating, Buckwheat, Wild (buckwheat, wild [4]; 125 g ai/ha) | Plant response rating, Galium (galium; 125 g ai/ha)
0: Plant response rating (scale 0 to 100), Field Violet (field violet; [5]) | Plant response rating (scale 0 to 100), Ryegrass, Italian (ryegrass, Italian; [5]) | Plant response rating, Wheat, Spring (wheat, spring; Postemergence, 16 g ai/ha) | Wheat, Spring plant response rating (wheat, spring; Postemergence, 31 g ai/ha) | Wheat, Spring plant response rating (wheat, spring; Postemergence, 125 g ai/ha) | Wheat, Spring plant response rating (wheat, spring; postemergence, 62 g ai/ha) | Plant response rating (scale 0 to 100), Foxtail, Green (foxtail, green; [5]) | Plant response rating (scale 0 to 100), Windgrass (windgrass; [5]) | Plant response rating (scale 0 to 100), Buckwheat, Wild (buckwheat, wild [4]; [5]) | Plant response rating (scale 0 to 100), Barley, Spring (barley, spring; 16 g ai/ha, taken as preemergence, 0 = no effect, 100 = complete control) | Plant response rating, Barley, Spring (barley, spring; 31 g ai/ha) | Plant response rating, Barley, Spring (barley, spring; 62 g ai/ha) | Plant response rating, Barley, Spring (barley, spring; 125 g ai/ha) | Plant response rating (scale 0 to 100), Barley, Winter (barley, winter; [5]) | Plant response rating, Barley, Winter (barley, winter; 31 g ai/ha) | Plant response rating, Barley, Winter (barley, winter; 62 g ai/ha) | Plant response rating, Barley, Winter (barley, winter; 125 g ai/ha)
90: Plant response rating, Mustard, Wild (mustard, wild; 62 g ai/ha)
100: Plant response rating, Chickweed (chickweed [1]; 125 g ai/ha) | Plant response rating, Radish, Wild (radish, wild; 125 g ai/ha) | Plant response rating, Mustard, Wild (mustard, wild; 125 g ai/ha) | Plant response rating, Pigweed (pigweed; 125 g ai/ha) | Plant response rating, Kochia (kochia; 125 g ai/ha)
25: Bluegrass plant response rating (bluegrass; Postemergence, 125 g ai/ha) | Plant response rating, Ryegrass, Italian (ryegrass, Italian; 62 g ai/ha)
55: Oilseed Rape plant response rating (oilseed rape; Postemergence, 125 g ai/ha) | Buckwheat, Wild plant response rating (buckwheat, wild [2]; Postemergence, 31 g ai/ha) | Buckwheat, Wild plant response rating (buckwheat, wild [2]; postemergence, 62 g ai/ha)
15: Plant response rating (scale 0 to 100), Radish, Wild (radish, wild; [5]) | Bluegrass plant response rating (bluegrass; Postemergence, 31 g ai/ha) | Bluegrass plant response rating (bluegrass; postemergence, 62 g ai/ha) | Wheat, Winter plant response rating (wheat, winter; Postemergence, 125 g ai/ha) | Plant response rating, Foxtail, Green (foxtail, green; 62 g ai/ha) | Plant response rating, Buckwheat, Wild (buckwheat, wild [4]; 31 g ai/ha)
65: Plant response rating, Field Violet (field violet; 125 g ai/ha) | Buckwheat, Wild plant response rating (buckwheat, wild [2]; Postemergence, 125 g ai/ha) | Chickweed plant response rating (chickweed [3]; Postemergence, 125 g ai/ha) | Field Poppy plant response rating (field poppy; Postemergence, 125 g ai/ha)
35: Chickweed plant response rating (chickweed [3]; Postemergence, 31 g ai/ha) | Chickweed plant response rating (chickweed [3]; postemergence, 62 g ai/ha)
60: Plant response rating, Galium (galium; 62 g ai/ha)
5: Plant response rating, Bluegrass (bluegrass; Postemergence, 16 g ai/ha) | Plant response rating, Wheat, Winter (wheat, winter; Postemergence, 16 g ai/ha) | Wheat, Winter plant response rating (wheat, winter; Postemergence, 31 g ai/ha) | Wheat, Winter plant response rating (wheat, winter; postemergence, 62 g ai/ha) | Plant response rating (scale 0 to 100), Kochia (kochia; [5])
95: Plant response rating, Buckwheat, Wild (buckwheat, wild [4]; 62 g ai/ha)
30: Plant response rating, Ryegrass, Italian (ryegrass, Italian; 125 g ai/ha) | Plant response rating, Buckwheat, Wild (buckwheat, wild [2]; Postemergence, 16 g ai/ha)
50: Plant response rating, Chickweed (chickweed [1]; 31 g ai/ha) | Plant response rating, Field Violet (field violet; 62 g ai/ha) | Field Poppy plant response rating (field poppy; Postemergence, 31 g ai/ha) | Field Poppy plant response rating (field poppy; postemergence, 62 g ai/ha)
75: Plant response rating, Radish, Wild (radish, wild; 62 g ai/ha)
20: Plant response rating, Oilseed Rape (oilseed rape; Postemergence, 16 g ai/ha) | Plant response rating, Chickweed (chickweed [3]; Postemergence, 16 g ai/ha)

Reference: US20150105252A1, “SUBSTITUTED PYRAZOLES AS HERBICIDES” (E I DU PONT DE NEMOURS AND COMPANY, priority 2013, published 2015)
